The source made the active and inactive calls.
What was measured:
HeLa = assay: viability loss in HeLa cells – cell-based, ATP luminescence, cherry-pick samples, cytotoxicity control, dose response (AID 687004); format: functional; conditions: Homo sapiens
Beta-lactamase [1] = target: Beta-lactamase (Pseudomonas aeruginosa, UniProt Q79MP6);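 further: biochemical dose-response test of metallo-beta-lactamase enzyme inhibition, read out by epi-absorbance; purified recombinant IMP-1 metallo-beta-lactamase with nitrocefin as substrate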
Beta-lactamase (Pseudomonas aeruginosa, UniProt Q79MP6), sequence (Q79MP6 whole entry): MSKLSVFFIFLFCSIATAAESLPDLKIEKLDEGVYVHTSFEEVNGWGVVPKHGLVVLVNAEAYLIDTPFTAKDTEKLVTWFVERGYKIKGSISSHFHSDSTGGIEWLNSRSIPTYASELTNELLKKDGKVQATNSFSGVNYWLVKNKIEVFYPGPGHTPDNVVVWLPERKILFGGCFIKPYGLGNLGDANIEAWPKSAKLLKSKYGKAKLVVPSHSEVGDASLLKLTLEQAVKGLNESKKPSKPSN

Beta-lactamase [2] = target: Beta-lactamase (Salmonella choleraesuis (strain SC-B67), UniProt Q5J463)
Beta-lactamase (Salmonella choleraesuis (strain SC-B67), UniProt Q5J463), sequence (Q5J463 whole entry): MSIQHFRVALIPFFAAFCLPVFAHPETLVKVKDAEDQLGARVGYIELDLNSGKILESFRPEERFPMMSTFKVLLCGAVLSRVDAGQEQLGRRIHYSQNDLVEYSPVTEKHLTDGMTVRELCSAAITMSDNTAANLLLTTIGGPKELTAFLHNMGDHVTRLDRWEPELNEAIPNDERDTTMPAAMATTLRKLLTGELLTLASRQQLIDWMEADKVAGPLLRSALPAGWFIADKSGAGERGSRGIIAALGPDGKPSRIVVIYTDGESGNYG

[3] = target: T1, Botulinum neurotoxin type A (Clostridium botulinum (strain Hall / ATCC 3502 / NCTC 13319 / Type A), UniProt P0DPI1); assay: High-throughput multiplex microsphere dose response for inhibitors of toxin protease, specifically Botulinum neurotoxin light chain A protease, compounds from Powder Set 01.; format: functional, Clostridium botulinum A str. ATCC 3502; conditions: read-out: EC50_MICROM
T1 sequence (P0DPI1 2-448 limits assumed): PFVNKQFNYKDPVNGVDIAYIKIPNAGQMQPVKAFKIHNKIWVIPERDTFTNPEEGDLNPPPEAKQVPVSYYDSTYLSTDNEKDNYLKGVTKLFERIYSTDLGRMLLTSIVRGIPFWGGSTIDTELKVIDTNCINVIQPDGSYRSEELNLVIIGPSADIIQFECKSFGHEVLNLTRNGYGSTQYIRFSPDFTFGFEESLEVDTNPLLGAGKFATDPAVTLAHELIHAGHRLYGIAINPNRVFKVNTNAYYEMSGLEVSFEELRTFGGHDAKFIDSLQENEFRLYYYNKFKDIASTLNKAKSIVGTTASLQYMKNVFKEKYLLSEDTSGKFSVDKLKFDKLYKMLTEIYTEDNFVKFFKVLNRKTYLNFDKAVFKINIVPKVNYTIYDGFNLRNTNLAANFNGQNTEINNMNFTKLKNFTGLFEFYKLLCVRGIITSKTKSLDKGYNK

[4] = target: Botulinum neurotoxin type F (Clostridium botulinum, UniProt P30996); assay: High-throughput multiplex microsphere dose response for inhibitors of toxin protease, specifically Botulinum neurotoxin light chain F protease, compounds from Powder Set 01.; format: functional, Clostridium botulinum Bf; conditions: read-out: EC50_MICROM
Lethal factor = Lethal factor (Bacillus anthracis, UniProt P15917); assay: High-throughput multiplex microsphere dose response for inhibitors of toxin protease, specifically Lethal Factor protease, compounds from Powder Set 01.; format: functional, Bacillus anthracis str. A2012; conditions: read-out: EC50_MICROM
Lethal factor, sequence (P15917 whole entry): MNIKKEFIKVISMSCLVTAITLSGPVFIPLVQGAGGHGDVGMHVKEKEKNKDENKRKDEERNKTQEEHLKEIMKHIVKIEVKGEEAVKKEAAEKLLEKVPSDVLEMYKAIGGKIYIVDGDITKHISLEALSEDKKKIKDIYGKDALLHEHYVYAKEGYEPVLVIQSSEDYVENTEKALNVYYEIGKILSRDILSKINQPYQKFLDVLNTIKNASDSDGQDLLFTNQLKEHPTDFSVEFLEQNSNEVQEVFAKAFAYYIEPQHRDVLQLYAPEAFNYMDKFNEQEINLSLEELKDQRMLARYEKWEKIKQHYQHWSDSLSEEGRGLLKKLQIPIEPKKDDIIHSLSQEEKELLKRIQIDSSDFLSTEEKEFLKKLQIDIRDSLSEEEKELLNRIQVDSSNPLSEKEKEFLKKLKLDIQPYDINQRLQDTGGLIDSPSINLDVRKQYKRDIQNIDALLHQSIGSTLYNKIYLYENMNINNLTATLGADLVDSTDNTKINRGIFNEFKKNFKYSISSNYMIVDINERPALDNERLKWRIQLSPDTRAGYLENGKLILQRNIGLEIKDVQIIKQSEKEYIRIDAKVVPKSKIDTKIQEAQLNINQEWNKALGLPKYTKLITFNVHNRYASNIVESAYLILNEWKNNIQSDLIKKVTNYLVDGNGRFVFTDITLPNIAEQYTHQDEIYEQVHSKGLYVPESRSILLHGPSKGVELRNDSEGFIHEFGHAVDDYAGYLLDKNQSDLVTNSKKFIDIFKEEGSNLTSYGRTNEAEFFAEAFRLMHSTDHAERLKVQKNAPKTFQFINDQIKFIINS

[5] = target: T1, Botulinum neurotoxin type A; assay: Confirmatory FRET assay using full length substrates for Botulinum neurotoxin light chain A protease, with Powder Set01.; format: functional
[6] = activation of miR-122 Renilla sensor silencing – cell-based, Huh7 psiCHECK-miR122, Renilla luciferase, cherry-picked, dose response (AID 651956); format: functional;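 further: huh7 hepatoma cells stably carrying a psiCHECK-2 miR-122 sensor plasmid; renilla luciferase signal reporting endogenous miR-122 activity after 48 h compound exposure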
[7] = general mammalian cell viability loss – inhibitor set, cherry-pick, set 2, cytotoxicity control for miR-122 modulator project, dose response (AID 720697); format: functional, cell-based
[8] = general mammalian cell viability loss – activator set, cherry-pick, cytotoxicity control for miR-122 modulator project, dose response (AID 720690); format: functional, cell-based;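 further: HEK293T human cells scored for general mammalian cytotoxicity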
Mu-type opioid receptor = Mu-type opioid receptor (Homo sapiens, UniProt P35372); format: functional, cell-based;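 further: U2OS cells with beta-arrestin recruitment to OPRM1 by beta-gal complementation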
Mu-type opioid receptor, sequence (P35372 whole entry): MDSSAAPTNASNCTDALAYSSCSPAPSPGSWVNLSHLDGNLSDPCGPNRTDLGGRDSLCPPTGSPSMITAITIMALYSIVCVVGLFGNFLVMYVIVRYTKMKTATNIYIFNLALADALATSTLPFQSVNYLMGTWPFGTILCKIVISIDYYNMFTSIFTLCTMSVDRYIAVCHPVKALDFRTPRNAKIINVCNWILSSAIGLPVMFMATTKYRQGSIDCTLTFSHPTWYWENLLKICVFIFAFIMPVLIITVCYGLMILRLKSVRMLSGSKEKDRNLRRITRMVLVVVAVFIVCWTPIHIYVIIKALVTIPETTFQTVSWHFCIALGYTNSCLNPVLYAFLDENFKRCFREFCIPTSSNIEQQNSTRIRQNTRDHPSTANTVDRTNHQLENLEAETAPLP

[9] = target: 5-hydroxytryptamine receptor 2A (Mus musculus, UniProt P35363); format: functional, cell-based;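 further: CHO-K1 cells with tagged receptor and beta-arrestin; agonist potency measured as compound-induced activation of the receptor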
5-hydroxytryptamine receptor 2A, sequence (P35363 whole entry, the tested form may be a part): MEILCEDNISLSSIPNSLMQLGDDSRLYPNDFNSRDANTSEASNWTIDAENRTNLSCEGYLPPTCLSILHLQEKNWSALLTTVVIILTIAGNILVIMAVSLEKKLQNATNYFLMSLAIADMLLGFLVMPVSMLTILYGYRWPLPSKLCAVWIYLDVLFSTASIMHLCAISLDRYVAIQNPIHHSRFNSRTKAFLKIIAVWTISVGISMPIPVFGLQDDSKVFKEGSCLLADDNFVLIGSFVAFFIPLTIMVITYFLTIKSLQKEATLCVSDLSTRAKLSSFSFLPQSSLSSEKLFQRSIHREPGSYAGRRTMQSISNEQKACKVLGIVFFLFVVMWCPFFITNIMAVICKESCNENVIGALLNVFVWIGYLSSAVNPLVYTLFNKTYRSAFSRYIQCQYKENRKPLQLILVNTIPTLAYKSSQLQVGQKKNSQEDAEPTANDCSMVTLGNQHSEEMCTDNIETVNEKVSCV

[10] = target: T2, RNA-binding protein pos-1 (Caenorhabditis elegans, UniProt G5EF15); assay: disruptors of C. elegans POS-1 RNA interaction – biochemical, fluorescence polarization, dose response (AID 1964);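 further: purified POS-1 fused to maltose binding protein made in E. coli; potency of compounds blocking POS-1 binding to fluorescent RNA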
T2 sequence (G5EF15 whole entry): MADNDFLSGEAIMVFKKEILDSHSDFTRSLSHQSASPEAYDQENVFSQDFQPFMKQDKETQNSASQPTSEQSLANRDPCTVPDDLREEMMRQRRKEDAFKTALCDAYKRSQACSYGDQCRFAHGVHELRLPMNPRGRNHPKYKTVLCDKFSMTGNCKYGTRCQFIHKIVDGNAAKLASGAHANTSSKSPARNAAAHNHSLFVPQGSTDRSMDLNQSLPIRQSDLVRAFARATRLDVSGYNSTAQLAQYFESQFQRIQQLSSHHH

[11] = target: T3, Zinc finger protein mex-5 (Caenorhabditis elegans, UniProt Q9XUB2); assay: potency of MEX-5 RNA-binding blockers – biochemical, C. elegans, fluorescence polarization, dose response (AID 1960)
T3 sequence (Q9XUB2 whole entry): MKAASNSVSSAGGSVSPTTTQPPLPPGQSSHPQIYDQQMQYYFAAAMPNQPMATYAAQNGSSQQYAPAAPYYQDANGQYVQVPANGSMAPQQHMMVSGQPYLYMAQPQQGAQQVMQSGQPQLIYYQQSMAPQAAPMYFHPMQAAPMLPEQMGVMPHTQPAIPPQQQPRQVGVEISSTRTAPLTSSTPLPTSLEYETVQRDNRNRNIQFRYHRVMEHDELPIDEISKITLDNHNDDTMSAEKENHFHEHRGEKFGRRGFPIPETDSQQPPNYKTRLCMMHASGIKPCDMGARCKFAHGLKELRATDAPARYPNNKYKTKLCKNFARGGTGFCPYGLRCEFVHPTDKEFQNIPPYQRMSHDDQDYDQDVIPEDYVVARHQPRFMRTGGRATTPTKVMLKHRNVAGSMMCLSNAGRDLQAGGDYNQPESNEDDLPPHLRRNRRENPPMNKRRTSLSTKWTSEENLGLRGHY

[12] = target: Long-chain-fatty-acid--AMP ligase FadD28 (Mycobacterium tuberculosis, UniProt P9WQ59); assay: Fluorescence polarization aasay to screen for inhibitors that compete for the binding of FadD28 to a bisubstrate Measured in Biochemical System Using Plate Reader - 2147-01_Inhibitor_Dose_CherryPick_Activity.; format: functional, Mycobacterium tuberculosis H37Rv
Long-chain-fatty-acid--AMP ligase FadD28, sequence (P9WQ59 whole entry): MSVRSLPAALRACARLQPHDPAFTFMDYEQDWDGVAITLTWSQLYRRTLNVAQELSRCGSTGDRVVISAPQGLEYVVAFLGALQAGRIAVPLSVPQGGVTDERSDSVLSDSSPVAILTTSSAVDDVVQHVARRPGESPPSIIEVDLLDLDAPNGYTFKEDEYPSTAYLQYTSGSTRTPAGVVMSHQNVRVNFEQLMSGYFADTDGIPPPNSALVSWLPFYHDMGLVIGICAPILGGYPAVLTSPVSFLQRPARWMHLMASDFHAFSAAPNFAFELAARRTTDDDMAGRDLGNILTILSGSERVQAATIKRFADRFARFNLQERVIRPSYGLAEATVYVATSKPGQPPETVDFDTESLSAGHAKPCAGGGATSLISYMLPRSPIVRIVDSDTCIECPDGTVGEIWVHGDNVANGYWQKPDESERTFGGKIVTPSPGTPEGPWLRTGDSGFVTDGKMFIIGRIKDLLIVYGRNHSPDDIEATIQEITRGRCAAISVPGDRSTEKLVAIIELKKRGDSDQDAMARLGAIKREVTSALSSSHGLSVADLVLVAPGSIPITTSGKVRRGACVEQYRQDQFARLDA

[13] = target: T4, Rac GTPase-activating protein 1 (Homo sapiens, UniProt Q9H0H5); assay: blockers of MgcRacGAP-driven Rac1 GTP hydrolysis – biochemical, ADP Hunter fluorescence, primary and confirmatory, confirmation (AID 624330); format: functional
T4 sequence (Q9H0H5 whole entry): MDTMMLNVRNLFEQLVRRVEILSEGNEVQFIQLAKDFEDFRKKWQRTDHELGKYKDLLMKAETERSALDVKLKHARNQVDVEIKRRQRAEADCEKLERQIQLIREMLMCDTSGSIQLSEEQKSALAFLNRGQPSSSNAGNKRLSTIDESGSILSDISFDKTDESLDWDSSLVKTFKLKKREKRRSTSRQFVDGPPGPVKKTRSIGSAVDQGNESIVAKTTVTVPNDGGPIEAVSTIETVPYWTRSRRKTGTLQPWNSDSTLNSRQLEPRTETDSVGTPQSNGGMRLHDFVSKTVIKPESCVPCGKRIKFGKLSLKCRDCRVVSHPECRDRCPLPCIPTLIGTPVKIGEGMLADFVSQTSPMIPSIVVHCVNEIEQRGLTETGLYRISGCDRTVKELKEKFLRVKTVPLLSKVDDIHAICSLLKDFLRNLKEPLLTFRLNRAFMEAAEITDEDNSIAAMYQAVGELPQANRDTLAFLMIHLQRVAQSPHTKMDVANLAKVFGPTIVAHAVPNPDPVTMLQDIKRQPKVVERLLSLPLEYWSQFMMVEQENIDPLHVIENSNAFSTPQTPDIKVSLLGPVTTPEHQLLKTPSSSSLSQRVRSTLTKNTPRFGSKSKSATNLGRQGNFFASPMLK

Protein Wnt-3a = Protein Wnt-3a (Mus musculus, UniProt P27467); assay: SAR analysis of small molecule antagonists of Gli-SUFU in a Wnt3a luminescent reporter assay.; format: functional
Protein Wnt-3a, sequence (P27467 whole entry): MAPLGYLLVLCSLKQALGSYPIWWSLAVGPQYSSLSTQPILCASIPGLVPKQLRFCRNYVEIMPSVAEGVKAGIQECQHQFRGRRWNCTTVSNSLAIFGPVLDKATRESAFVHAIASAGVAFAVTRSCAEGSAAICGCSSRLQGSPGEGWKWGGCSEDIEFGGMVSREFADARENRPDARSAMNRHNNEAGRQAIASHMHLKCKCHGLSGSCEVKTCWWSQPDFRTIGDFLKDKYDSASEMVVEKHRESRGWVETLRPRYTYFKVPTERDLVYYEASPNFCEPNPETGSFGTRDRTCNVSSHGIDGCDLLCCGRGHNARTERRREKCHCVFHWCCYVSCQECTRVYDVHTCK

[14] = target: T5, Methionyl-tRNA synthetase, putative (Trypanosoma brucei brucei, UniProt Q38C91); format: functional, Trypanosoma brucei brucei strain 927/4 GUTat10.1
T5 sequence (Q38C91 whole entry): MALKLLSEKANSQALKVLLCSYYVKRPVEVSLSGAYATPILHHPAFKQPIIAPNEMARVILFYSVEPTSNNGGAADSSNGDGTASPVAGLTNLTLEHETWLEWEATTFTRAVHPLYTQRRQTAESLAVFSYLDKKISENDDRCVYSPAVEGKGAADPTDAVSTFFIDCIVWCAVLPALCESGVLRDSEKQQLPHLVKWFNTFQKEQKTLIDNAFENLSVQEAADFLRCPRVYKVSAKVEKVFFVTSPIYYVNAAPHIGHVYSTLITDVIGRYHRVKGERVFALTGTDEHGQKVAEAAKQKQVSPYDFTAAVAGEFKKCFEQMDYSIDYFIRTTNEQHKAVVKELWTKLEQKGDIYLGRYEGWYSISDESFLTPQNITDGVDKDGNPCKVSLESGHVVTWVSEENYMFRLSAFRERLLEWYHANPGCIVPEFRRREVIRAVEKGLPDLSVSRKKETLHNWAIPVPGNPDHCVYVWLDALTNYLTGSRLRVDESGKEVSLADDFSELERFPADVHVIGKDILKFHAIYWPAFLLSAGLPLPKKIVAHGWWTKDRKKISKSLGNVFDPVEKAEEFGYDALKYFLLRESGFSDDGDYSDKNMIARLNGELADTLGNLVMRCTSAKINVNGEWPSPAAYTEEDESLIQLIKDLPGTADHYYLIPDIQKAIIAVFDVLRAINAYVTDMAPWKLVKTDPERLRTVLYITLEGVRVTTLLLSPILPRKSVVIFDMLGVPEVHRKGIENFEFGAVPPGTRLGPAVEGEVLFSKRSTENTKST

[15] = Counterscreen for inhibitors of Trypanosoma brucei methionyl tRNA synthetase (MetRS): Luminescence-based cell-based high throughput dose response assay to identify compounds that are cytotoxic to Jurkat human T lymphocyte cells.; format: functional
[16] = target: T5, Methionyl-tRNA synthetase, putative; format: functional, Trypanosoma brucei brucei strain 927/4 GUTat10.1; remark: listed apart in the source
[17] = target: T6, Replicative DNA helicase DnaB (Mycobacterium tuberculosis, UniProt P9WMR3); assay: DnaB intein splicing inhibitors, dose response, biochemical, cell-free fluorescence (AID 449749); format: functional
T6 sequence (P9WMR3 whole entry): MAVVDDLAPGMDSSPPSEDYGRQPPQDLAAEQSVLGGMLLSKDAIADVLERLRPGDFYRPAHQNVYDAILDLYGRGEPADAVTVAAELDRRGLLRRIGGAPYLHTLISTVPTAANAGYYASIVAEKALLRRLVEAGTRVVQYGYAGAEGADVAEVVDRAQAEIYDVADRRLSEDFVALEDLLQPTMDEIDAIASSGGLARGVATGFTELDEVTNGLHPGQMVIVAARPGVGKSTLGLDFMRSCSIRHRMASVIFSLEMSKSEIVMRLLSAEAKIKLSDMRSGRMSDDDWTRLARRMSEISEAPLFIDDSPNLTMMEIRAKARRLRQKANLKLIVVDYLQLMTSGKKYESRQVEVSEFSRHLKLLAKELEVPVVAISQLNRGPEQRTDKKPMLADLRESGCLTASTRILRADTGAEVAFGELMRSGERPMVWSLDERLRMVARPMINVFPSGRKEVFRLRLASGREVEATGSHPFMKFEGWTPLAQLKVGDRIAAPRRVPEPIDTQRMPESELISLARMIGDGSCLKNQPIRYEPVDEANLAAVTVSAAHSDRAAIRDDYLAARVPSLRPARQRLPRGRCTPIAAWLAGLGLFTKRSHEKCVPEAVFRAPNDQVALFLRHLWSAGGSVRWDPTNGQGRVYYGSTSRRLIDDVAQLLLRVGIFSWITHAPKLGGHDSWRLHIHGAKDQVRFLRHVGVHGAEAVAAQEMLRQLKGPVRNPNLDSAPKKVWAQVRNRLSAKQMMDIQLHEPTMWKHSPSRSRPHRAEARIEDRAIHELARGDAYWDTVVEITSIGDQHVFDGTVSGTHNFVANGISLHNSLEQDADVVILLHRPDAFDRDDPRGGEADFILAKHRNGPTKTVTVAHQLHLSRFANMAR

Protein RecA = target: T7, Protein RecA (Mycobacterium tuberculosis, UniProt P9WHJ3); assay: Fluorescence Cell-Free Homogeneous Dose Retest to Identify Inhibitors of RecA-Intein Splicing Activity. [Related pubchem assays (depositor defined):AID2097, AID2223, AID489010, AID492950]; format: functional
T7 sequence (P9WHJ3 whole entry): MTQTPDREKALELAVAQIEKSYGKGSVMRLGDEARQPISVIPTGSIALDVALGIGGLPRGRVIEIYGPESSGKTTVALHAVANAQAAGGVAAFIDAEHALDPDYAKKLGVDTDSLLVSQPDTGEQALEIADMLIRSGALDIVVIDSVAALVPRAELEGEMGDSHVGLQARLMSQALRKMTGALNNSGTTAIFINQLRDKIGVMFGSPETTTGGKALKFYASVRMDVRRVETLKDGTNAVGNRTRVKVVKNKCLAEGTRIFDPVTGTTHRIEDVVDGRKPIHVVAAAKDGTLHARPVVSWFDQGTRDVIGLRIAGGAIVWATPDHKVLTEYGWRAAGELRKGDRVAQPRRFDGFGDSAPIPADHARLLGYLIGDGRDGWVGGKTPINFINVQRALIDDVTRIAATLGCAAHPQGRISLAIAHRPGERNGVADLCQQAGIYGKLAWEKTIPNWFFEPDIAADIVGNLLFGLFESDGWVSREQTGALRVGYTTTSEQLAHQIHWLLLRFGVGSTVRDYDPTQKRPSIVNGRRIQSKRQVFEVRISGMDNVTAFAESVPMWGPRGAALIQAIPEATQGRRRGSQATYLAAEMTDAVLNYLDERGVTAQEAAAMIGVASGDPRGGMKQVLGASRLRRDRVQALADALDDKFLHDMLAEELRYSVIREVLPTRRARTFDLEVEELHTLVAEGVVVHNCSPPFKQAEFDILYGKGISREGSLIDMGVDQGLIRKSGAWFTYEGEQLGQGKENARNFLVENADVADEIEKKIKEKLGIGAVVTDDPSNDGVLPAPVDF

[18] = target: T8, Sentrin-specific protease 8 (Homo sapiens, UniProt Q96LD8); format: functional
T8 sequence (Q96LD8 whole entry): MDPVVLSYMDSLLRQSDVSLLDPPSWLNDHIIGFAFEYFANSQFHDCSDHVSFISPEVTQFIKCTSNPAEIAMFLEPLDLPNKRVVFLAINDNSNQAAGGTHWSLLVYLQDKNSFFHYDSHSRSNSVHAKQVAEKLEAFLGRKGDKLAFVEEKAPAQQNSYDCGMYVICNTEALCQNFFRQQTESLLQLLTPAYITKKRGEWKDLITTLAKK

[19] = target: T8, Sentrin-specific protease 8; format: functional; remark: listed apart in the source
[20] = viability loss in HepG2 hepatoma cells – cell-based, cherry-picks, set 5, cytotoxicity control, dose response (AID 1053118); format: functional
[21] = viability loss in A549 lung cancer cells – cell-based, cherry-picks, […], cytotoxicity control, dose response (AID 1053119); format: functional
cells [22] = format: functional, cell-based
[23] = target: T9, Trace amine-associated receptor 1 (Homo sapiens, UniProt Q96RJ0); assay: Fluorescence-based cell-based high throughput dose response assay to identify agonists of the human trace amine associated receptor 1 (TAAR1).; format: functional
T9 sequence (Q96RJ0 whole entry): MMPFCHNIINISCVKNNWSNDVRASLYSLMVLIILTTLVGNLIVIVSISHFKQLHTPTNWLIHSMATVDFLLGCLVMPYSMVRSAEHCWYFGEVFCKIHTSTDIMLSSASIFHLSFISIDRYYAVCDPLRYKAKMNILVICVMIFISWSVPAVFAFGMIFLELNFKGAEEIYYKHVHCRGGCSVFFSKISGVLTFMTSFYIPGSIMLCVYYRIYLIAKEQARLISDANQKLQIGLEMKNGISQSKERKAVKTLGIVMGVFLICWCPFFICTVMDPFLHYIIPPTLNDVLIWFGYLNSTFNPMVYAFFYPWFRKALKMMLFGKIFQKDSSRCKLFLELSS

[24] = target: T9, Trace amine-associated receptor 1; assay: Counterscreen for agonists of the human trace amine associated receptor 1 (hTAAR1): Fluorescence-based cell-based high throughput dose response assay to identify hTAAR1 agonist that also desensitize TAAR1 receptor response.; format: functional
cells [25] = format: functional, cell-based; remark: listed apart in the source

C[C@@H]1CN([C@@H](C)CO)C(=O)c2cc(NS(=O)(=O)c3cn(C)cn3)ccc2O[C@@H](C)CCCCO[C@@H]1CN(C)Cc1ccc(C(F)(F)F)cc1
AC50 (HeLa): 13 µM (active)

COc1ccc(-c2occ(C(=O)O)c2C(=O)O)cc1
IC50 (Beta-lactamase [1]): 23.5 µM (inactive)
IC50 (Beta-lactamase [2]): > 59.6 µM (inactive)

Clc1ccc(-c2cn3nc(-c4ccccc4)c(-c4ccccc4)nc3n2)cc1
EC50 [3]: 1 µM (active)
EC50 [4]: 7.4 µM (active)
EC50 (Lethal factor): 1.6 µM (active)
EC50 [5]: 2.4 µM (active)

C[C@@H]1CN([C@@H](C)CO)C(=O)Cc2cc(NC(=O)c3ccncc3)ccc2O[C@H]1CN(C)Cc1ccc(-c2ccccc2)cc1
AC50 [6]: 4.94 µM (active)
AC50 [7]: 15.9 µM (active)
AC50 [8]: 23.6 µM (active)

Clc1ccc(CN2CCN(c3ncccn3)CC2)cc1
EC50 (Mu-type opioid receptor): 92.5 µM (inactive)
EC50 [9]: 0.153 µM (active)

O=C(CNS(=O)(=O)c1ccc([N+](=O)[O-])cc1)N/N=C/c1ccc(O)cc1O
EC50 [10]: 8.98 µM (active)
EC50 [11]: 8.33 µM (active)
AC50 [12]: 9.67 µM (active)
IC50 [13]: 128 µM (active)

CC(C)Nc1cc(NC(=O)c2ccccc2)ncn1
IC50 (Protein Wnt-3a): > 21.8 µM (inactive)

O=C(Nc1ccccc1)Nc1nnc(CSCc2ccccc2Cl)s1
IC50 [14]: 46.7 µM (inactive)
IC50 [15]: 27.7 µM (inactive)
IC50 [16]: 6.26 µM (active)

COC(=O)CCCC1=CC2=C(c3ccccc3)C(=O)C(C)(OC(=O)C3CCCC3)C(=O)C2=CN1CCCCO (stereo not given)
AC50 [17]: 68.9 µM (active)
EC50 (Protein RecA): 18.4 µM (active)
IC50 [18]: 6.43 µM (active)
IC50 [19]: 2.93 µM (active)

O=C(c1cccnc1)N1C[C@@H]2[C@H](c3ccccc31)[C@@H](CO)N2CC1CCCC1
AC50 [20]: > 52 µM (inactive)
AC50 [21]: > 52 µM (inactive)

O=C(C(=O)N1CCc2ccccc2C1)c1cn(CC(=O)N2CCCCC2)c2ccccc12
IC50 (cells [22]): > 29.9 µM (inactive)
EC50 [23]: 0.879 µM (active)
IC50 [24]: 3.57 µM (active)
EC50 (cells [25]): > 29.9 µM (inactive)

— ChEMBL document CHEMBL1201862, “PubChem BioAssay data set” (2004)
